From patent publication US20070254956A1, “Medicament for Therapeutic and/or Preventive Treatment of Restenosis or Reocclusion After Vascular Recanalization Operation” (priority 2003, published 2007)

Tested on: proliferation of neointima
Assay: Test for inhibition of proliferation of neointima in a mouse model of femoral arterial angiopathy
Type: in vivo
Conditions: male C57BL/6 mouse, 1 mg/kg/day intraperitoneally for 10 days
Protocol: As an angiopathy model resulting from a vascular recanalization operation, a treatment was carried out in which 0.015 inch spring wires were implanted into both […] of 20-25 g male C57BL/6 mouse under anesthesia, and placed for 1 minute to extend the arteries. After the operation, the compound represented by the formula (I) was administered 1 mg/kg/day intraperitoneally for 10 days. Blood vessels were extirpated 4 weeks after the operation and histopathologically examined. Influences between the drug administered group and non-administered group on the cross-section ratio of neointima and tunica media (neointima/tunica media) were compared.

O=C(Nc1cc(C(F)(F)F)cc(C(F)(F)F)c1)c1cc(Cl)ccc1O [compound (I)]
cross-section ratio of neointima and tunica media (neointima/tunica media) (wire-injured femoral arteries, vessels examined 4 weeks after operation, non-administered group 2.01±0.15): 1.01±0.27
inhibition of the proliferation of neointima after the angiopathy (4 weeks after operation): strongly inhibited the proliferation of neointima
